The text below walks through data of US20260184700A1, “PDK1 REGULATORY COMPOUND AND COMPOSITION CONTAINING THE SAME” (PROVIBIO CO., LTD., priority 2024, published 2026).

For assay [1], the system named is phospho-PDK1 in SU-DHL-8 cells. The assay is described as follows: PDK1 phosphorylation (pPDK1) by flow cytometry in SU-DHL-8 cells. The assay is classed as cell-based, human. Conditions: SU-DHL-8, 24 hours, pPDK1-PE flow cytometry, vs control group. How it is done:
SU-DHL-8 cells were cultured in RPMI-1640 medium (containing 10% FBS, 100 U/mL penicillin, and 100 μg/mL streptomycin), and the cell concentration was adjusted to 1×10^6 cells/mL and seeded into a 12-well plate. After stabilizing the cells, the compound of the present invention was added, and the cells were cultured for 24 hours.
After drug treatment, the cells were harvested, and the Fc receptor blocking process was performed. The cells were then fixed and permeabilized using the Intracellular Staining Kit (Cat. No. BD554715) from BD Biosciences. Subsequently, the intracellular pPDK1 was stained using the pPDK1-PE fluorescently labeled antibody (BD Biosciences).
Referring to the figure, the vertical axis represents the phosphorylation level of PDK1 (phospho-PDK1 expression level), and the horizontal axis denotes the concentration-dependent treatment conditions of each compound.
On the technique in general: In flow cytometry, cells or beads pass a laser one at a time.

In assay [2] the test system is MRL/lpr mice. The assay is described as follows: Lupus animal model (MRL/lpr mice). The assay is classed as in vivo, mouse. From the text:
The MRL/MpJ-Faslpr/J (Hereinafter Referred to as “MRL/lpr”) used in this experiment is one of the representative animal models for systemic lupus erythematosus (SLE), known to produce various autoantibodies, including antinuclear antibodies, due to the lpr (lymphoproliferation) gene.
In this invention, the period up to 9 weeks of age was considered the pre-disease stage, and the period after 23 weeks of age was considered the post-disease stage, and efficacy verification experiments using this model were conducted.
MRL/lpr mice were imported from The Jackson Laboratory and acclimatized for one week in an SPF (Specific Pathogen Free) facility maintained at a temperature of 21-24° C., humidity of 40-60%, and a 12-hour light-dark cycle (lights on at 7:00 AM, lights off at 7:00 PM). […]
The serum separated at the time of necropsy of the lupus animal model was analyzed using the ‘IgG (Total) Mouse Uncoated ELISA Kit (Invitrogen, Cat. #88-50400)’ to measure the concentration of total IgG.
Capture antibody (anti-mouse IgG) diluted 1/250 in coating buffer was added to each well of a 96-well plate (Nunc™ MaxiSorp™ ELISA Plates, Uncoated, BioLegend, Cat. #423501) at 100 μl per well, and the plate was incubated at 4° C. for 16 hours.
To investigate the effect of GO15F administration on changes in the ratio of immune cells in the spleen of a lupus animal model, the spleens of mice administered each compound were excised, cells were extracted, and the cells were suspended in MACS buffer (autoMACS Washing Solution, Miltenyi Biotec., Cat. #130-092-987).
For flow cytometry analysis, FACS tubes (5 mL round tubes, Falcon, Cat. #352052) were used. To prevent non-specific binding of antibodies, 1 μg/mL of anti-mouse CD16/CD32 (InVivoPlus anti-mouse CD16/CD32, BioXCell, Cat. #BP0307) for 30 minutes to prevent non-specific binding of the antibody, then centrifuge at 1,500 rpm for 5 minutes and resuspend in 100 μL of MACS buffer.
For B cells, each FACS tube was stained with 1 μg/mL of FITC-conjugated anti-B220 antibody (eBioscience™, Cat. #11-0452-81) at 4° C. for 30 minutes, then washed with 2 mL of MACS buffer.
For T cells, each FACS tube was stained with 1 μg/mL PerCP-Cy5.5-conjugated anti-CD3 (Biolegend, Cat. #100218) at 4° C. for 30 minutes.
For macrophages, each FACS tube was stained with 1 μg/mL of PE-conjugated anti-CD11b antibody (Biolegend, Cat. #101207) and PerCP-Cy5.5-conjugated anti-F4/80 (Biolegend, Cat. #123128) and incubated at 4° C. for 30 minutes. The tubes were then washed with 2 mL of MACS buffer.
To investigate the effects of compound GO15F according to the present invention on systemic immune responses in a lupus animal model, gene expression analysis of cytokines in kidney tissue was performed as described in (1).
Each kidney tissue was used to isolate total RNA using TRIzol™ (Invitrozen, Cat. #15596018). RNA from each mouse was quantified at 1 μg using a micro-quantitative spectrophotometer (ThermoFisher Scientific, ND2000) and cDNA was synthesized.
The synthesized cDNA from each mouse was quantified to a concentration of 50 ng using a micro-quantitative spectrophotometer, and qPCR was performed for the cytokines ‘IL-2, IL-6, IL-10, IL-17, TNF-α, IFN-γ’ using a SYBR green probe (CFX96, BIO-RAD).
To investigate the effects of drug administration on renal tissue in MRL/lpr mice, the tissue was fixed in 10% neutral buffered formalin at room temperature, followed by stepwise ethanol penetration for dehydration. The tissue was then embedded in xylene and paraffin.
The blocked tissues were sectioned into 4 μm thick slices using a microtome, followed by deparaffinization, hydration, and staining.
Hematoxylin & Eosin staining, PAS staining, and Masson trichrome staining were performed for pathological evaluation of the tissues. […]

Assay [3] concerns NHDF (Normal Human Dermal Fibroblast) cells. The assay can be described thus: Doxorubicin-induced aging NHDF cell model, SA-β-gal and Ki-67. The assay is classed as cell-based. To be noted: Doxorubicin (100 ng/ml) and IGF-1 (100 ng/ml), GO15F 0.01, 1 μM, 7 days. How it is done: After pre-incubation, the medium was removed, and the cells were cultured for 7 days in medium containing Doxorubicin (100 ng/ml) and IGF-1 (100 ng/ml) with GO15F. During this process, the medium was replaced with fresh medium every 2 days. The cultured cells were washed with PBS, fixed with 1× fixation buffer for 15 minutes, washed again with PBS, and then 300 μL of 1× working SA-β-gal buffer was added to each well. The cells were incubated at 37° C. for 24 hours. After the reaction was terminated, the cells were washed with PBS, and the fluorescence intensity of β-gal-positive cells stained blue was observed and photographed using a light microscope. Additionally, to investigate the effect of the compound (GO15F) of the present invention on proliferation activity in aging-induced NHDF (Normal Human Dermal Fibroblast) cells, Ki-67 expression was measured via FACS analysis. First, NHDF cells were seeded at 1×10^4 cells per well in a 12-well plate and stabilized for 24 hours. Subsequently, the cells were pre-incubated with GO15F at a concentration of 0.01 μM for 24 hours. After pre-incubation, the medium was removed, and GO15F (0.01 μM) was added to the medium containing Doxorubicin (100 ng/ml) and IGF-1 (100 ng/ml), followed by incubation for 7 days with fresh medium replaced every 2 days. […]

Assay [4] has as its system bleomycin-treated Balb/c mice. The assay can be described thus: Bleomycin-induced pulmonary fibrosis animal model. The assay is classed as in vivo, mouse. To be noted: bleomycin mice lung, vs BLM-treated group. From the text: To evaluate the therapeutic efficacy of the compound according to the present invention against pulmonary fibrosis, an animal model of pulmonary fibrosis induced by bleomycin intratracheal administration was established.
For this purpose, 8-week-old male Balb/c mice were subjected to general anesthesia using an inhalation anesthetic (2-3% isoflurane in oxygen), followed by disinfection of the neck region, skin incision, and exposure of the trachea.
Bleomycin (Sigma-Aldrich, USA) was directly administered into the trachea at a concentration of 5 mg/kg in a solution of 100 μL.
Two days prior to Bleomycin administration, the compound of the present invention or the comparative drug was administered intraperitoneally at the specified concentration and dose, and the administration was continued once daily for a total of 14 days.
The experimental groups included Normal, Bleomycin alone (BLM), and BLM plus the compound of the present invention (BLM+GO88, 0.2 mg/kg).
Ten days later, the mice were euthanized humanely using carbon dioxide gas, the trachea was incised, and PBS was injected into the trachea to remove blood from the lungs.
The lung tissue washed with PBS was excised, fixed in 4% paraformaldehyde solution for 24 hours, and then paraffin blocks and tissue sections were prepared. The prepared sections were subjected to pathological analysis using H & E, Masson's trichrome, and Sirius red staining.
Additionally, immunohistochemical (IHC) staining was performed for α-SMA (α-smooth muscle actin), an indicator of lung fibroblast activation.

The mark [5] stands for this setting: MRL/lpr mice, serum at necropsy, ELISA, vs control group.

Regarding `Nc1ncccc1C(=O)NCCCCCCCCCCCCF` [Compound 57, 2-Amino-N-(12-fluoro-dodecyl)-nicotinamide], the “PDK1 phosphorylation (phospho-PDK1 expression level)” value in assay [1] is recorded as “inhibitory effect on PDK1 phosphorylation”. The “hair growth on the facial region” value in assay [2] (41-week-old female MRL/lpr mice, GO15F (30 mg/kg), GO48 (1 mg/kg), GO88 (0.5 mg/kg) intraperitoneally once daily) is “hair growth was confirmed”. In addition, the “renal pathological tissue (glomerular capillary loops)” value in assay [2] (MRL/lpr mice, H&E, PAS, Masson trichrome staining) is “glomerular capillary loops were well maintained”. Further, in assay [2] (MRL/lpr mice, flow cytometry (B220, CD3, CD11b/F4/80)), the “B cells, T cells, and macrophages in the spleen” value is “reduced the increased B cells, T cells, and macrophages”. In assay [2] (MRL/lpr mice, immunofluorescence staining), the “IgG deposition in kidney tissue” value is recorded as “significantly lower”. For the same compound, in assay [2] (setting [5]), the “concentration of anti-dsDNA IgG in the blood” value is reported as “significantly lower” and the “total IgG concentration in the blood” value is on record as “significantly lower”. The “protein concentration in urine” value in assay [2] (MRL/lpr mice, weekly urine, Bradford, vs control group) was “significantly lower than that in the control group”. For the same compound, the “number of β-gal-positive cells” value in assay [3] was “decreased”. Besides, in assay [4], the “collagen deposition (Masson's trichrome and Sirius red staining)” value is recorded as “significantly reduced”; the “expression of α-SMA (IHC)” value is “significantly suppressed”.
